Assay results published in patent US9951076B2, “Deuterated pentylenetetrazoles for improving cognitive function” (Balance Therapeutics, Inc., priority 2011, dated 2018).

Assays:
[1] = Metabolic stability in human liver microsomes; type: in vitro ADME; settings: for t1/2 increase over t1/2 of PTZ / in vitro t1/2 compared to the t1/2 of PTZ: human liver microsomes; for in vitro t1/2 compared to the t1/2 of PTZ: under the assay conditions tested; for half-life at 1 μM / microsomal CLint at 1 μM: pH 7.4, 1 mg/mL human liver microsomes, 1 μM test compound, NADPH regenerating system, 37° C., 0-45 min
Protocol: Human liver microsomes (Lot# FJM) were obtained from Celsis (Baltimore, Md.). Components of the NADPH regenerating system solution A (Lot#29850) and B (Lot#28594) were obtained from BD Gentest (Woburn, Mass.). […] All solvents and buffers were obtained from commercial sources and used without further purification.
NADPH regenerating system (1.3 mM NADP^+, 3.3 mM glucose-6-phosphate, 0.4 U/mL glucose-6-phosphate dehydrogenase, and 3.3 mM magnesium chloride) were prepared by mixing 5 volume of solution A and 1 volume of solution B and pre-warmed at 37° C. in a shaking water bath. Reactions were initiated by adding NADPH regenerating system to the incubation mixtures. After 0, 5, 10, 15, 30 and 45 min of incubation, 0.1 mL reaction mixtures were removed from the incubation plate and mixed with 0.15 mL of ice-cold acetonitrile in an appropriate well of a 96-well crash plate. The 96-well crash plate was placed on ice for 15 min, and samples were centrifuged (2,500 g, 10 min, 4° C.) to precipitate protein. The supernatants were diluted 1:1 (v/v) with water containing 0.015 μM verapamil (internal standard) in 96-well shallow injection plate, which was sealed and submitted for LC/MS or LC/MS/MS analysis utilitzing a API 150 single quadrupole mas spectrometer.
The residual compound remaining (% R) was determined from LC/MS peak areas by comparison to a zero time point. Metabolic half-life (t1/2) and intrinsic clearance (CLint) values were calculated from the slope of ln(%) plotted vs. time.

[2] = cited from earlier work
[3] = orally administered, humans; cited from earlier work

Compound	t1/2 increase over t1/2 of PTZ [1] [%]	in vitro t1/2 compared to the t1/2 of PTZ [1]	half-life at 1 μM [1] [h]	microsomal CLint at 1 μM [1] [µL/min/mg]	time of peak concentration in blood ([2]; after intravenous (IV) or intraperitoneal (IP) delivery) [min]	plasma half-life ([2]; in vivo)	kindling dose [3]
[2H]C1([2H])c2nnnn2C([2H])([2H])C([2H])([2H])C([2H])([2H])C1([2H])[2H] [Compound 1, d10-6,7,8,9-Tetrahydro-5H-tetrazolo[1,5-a]azepine]	45.1	increased	12.6	0.9	–	–	–
[2H]C1([2H])CCCC([2H])([2H])n2nnnc21 [Compound 2, 6,6,10,10-d4-6,7,8,9-Tetrahydro-5H-tetrazolo[1,5-a]azepine]	6.3	increased	9.23	1.3	–	–	–
[2H]C1([2H])Cc2nnnn2CC([2H])([2H])C1([2H])[2H] [Compound 3]	−2.9	–	8.43	1.4	–	–	–
[2H]C1([2H])CC([2H])([2H])c2nnnn2C([2H])([2H])C1 [Compound 4, 6,6,8,8,10,10-d6-6,7,8,9-tetrahydro-5H-tetrazolo[1,5-a]-azepine]	8.8	increased	9.45	1.2	–	–	–
C1CCc2nnnn2CC1 [PTZ, pentylenetetrazole]	–	–	8.68	1.3	≤ 10	about 60 minutes	approximately 20 mg/kg
C[C@]12CC[C@H]3[C@@H](CCC4=CC(=O)CC[C@@]43C)[C@@H]1CC[C@@H]2O [testosterone, reference compound]	–	–	–	76	–	–	–
